# Article PMC11627468, “Novel enzyme‐resistant pancreatic polypeptide analogs evoke pancreatic beta‐cell rest, enhance islet cell turnover, and inhibit food intake in mice” (Biofactors (Oxford, England), 2024)
# Legend:
# C57BL/6 mice [1] = test: Acute food intake in overnight fasted mice; type: in vivo; details: n = 6
# Method: (§1) Acute in vivo studies were conducted in groups (n = 6) of 4‐month‐old male C57BL/6 mice (Envigo, Huntington, UK). All mice were maintained on standard rodent chow (10% fat, 30% protein, and 60% carbohydrate; Trouw Nutrition, Northwich, UK), and drinking water provided ad libitum. Mice were housed individually and kept in a temperature‐controlled environment (22 ± 2°C), with a 12‐h light/dark cycle. Experiments were carried out in accordance with the UK Animal Scientific Procedures Act 1986 as well as being approved by Ulster University Animal Ethics Review Committee (AWERB) committee and protected by the UK Home Office Animal project license number PPL2902, approved on April 26, 2021. Acute effects of test peptides on food intake were tested in overnight (16 h) fasted mice. Briefly, fasted mice were administered an intraperitoneal (i.p.) injection of saline vehicle (0.9% (w/v) NaCl) alone or in combination with test peptides (each at 25, 75, or 200 nmol/kg bw) and cumulative food intake measured at regular intervals, to assess the pharmacodynamic profile of the test peptides. For food intake studies, mice were provided with preweighed rodent maintenance diet in their food hopper at t = 0 min, which was then re‐weighed at each timepoint with all due care taken to account for any wastage or crumbling of the food pellets. In this regard, the investigator was present at all times during the 180‐min test period to ensure accuracy and consistency in all measurements. Furthermore, effects of PP or related peptides (25 nmol/kg bw) on glucose homeostasis and insulin secretion were evaluated in overnight fasted mice following i.p. injection of glucose alone (18 mmol/kg bw) or in combination with PP peptides (each at 25 nmol/kg bw).
# [2] = in vivo; cited from earlier work
# Method: Despite these prominent therapeutically exploitable advantages, clinical utilization of native PP as a positive NPY4R modulator is limited by a short circulatory half‐life of less than 7 min.[17] This appears to be due to rapid cleavage of the N‐terminal dipeptide, Ala^1‐Pro^2, from PP by the ubiquitous enzyme dipeptidyl peptidase‐4 (DPP‐4).[18] […] As such, DPP‐4 resistant PP mole ...
# NPY4R = target: T1, NPY4R (Rattus norvegicus, UniProt Q63447); test: Receptor specificity: beta‐cell proliferation with NPY4R antagonist (S)‐VU0637120; type: cell-based; details: peptide 10^−6 M co‐incubated with NPY4R antagonist (S)‐VU0637120 10^−5 M; Ki‐67; n = 3
# T1 construct: endogenous in cells; host or cells: BRIN-BD11 beta cells
# T1 sequence (Q63447 whole entry): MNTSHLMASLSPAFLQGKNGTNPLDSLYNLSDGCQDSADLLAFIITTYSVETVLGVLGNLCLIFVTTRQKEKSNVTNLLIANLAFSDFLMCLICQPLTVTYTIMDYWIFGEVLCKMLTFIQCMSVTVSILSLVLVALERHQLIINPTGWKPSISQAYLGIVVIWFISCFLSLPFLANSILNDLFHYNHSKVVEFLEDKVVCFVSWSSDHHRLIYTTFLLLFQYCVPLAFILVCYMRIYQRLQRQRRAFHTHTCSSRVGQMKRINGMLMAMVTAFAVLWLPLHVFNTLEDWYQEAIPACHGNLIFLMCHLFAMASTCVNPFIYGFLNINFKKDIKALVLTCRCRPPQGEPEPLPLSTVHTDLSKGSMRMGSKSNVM
# Method: To assess the effects of PP and related peptides (10^−8 and 10^−6 M) on beta‐cell proliferation and apoptosis, BRIN‐BD11 beta‐cells were seeded onto sterilized, clear‐glass coverslips (16 mm diameter) and placed in 12‐well plates (Falcon Ltd) at a density of 40,000 cells per well and cultured for 18 h. Media control (11.1 mM glucose), GLP‐1 (10^−8 and 10^−6 M), and a cytokine cocktail mix (IL‐1β [100 U/mL], IFNγ [20 U/mL], TNFα [200 U/mL], Sigma Aldrich, UK) were employed as controls, as appropriate. Cells were then rinsed with PBS and fixed using 4% paraformaldehyde. After antigen retrieval with sodium citrate buffer at 95°C for 20 min, blocking was performed using 2% bovine serum albumin (BSA) for 45 min. For proliferation studies, the slips were then incubated at 37°C with rabbit anti‐Ki‐67 primary antibody (Abcam, ab15580), and subsequently with Alexa Fluor® 488 secondary antibody. Coverslips were mounted onto polylysine‐coated microscope slides using a 50:50 glycerol:PBS solution and stored at 4°C until required for analysis. To assess the ability of PP peptides to protect against cytokine‐induced apoptosis, cells were seeded, washed, and fixed as above, with the exception that the media was supplemented with the cytokine mix. […] Proliferation/TUNEL positive frequency was determined using the cell‐counter function on ImageJ Software and expressed as % of total cells analyzed.
# C57BL/6 mice [3] = test: Glucose‐stimulated plasma insulin in mice; type: in vivo; details: peptide 25 nmol/kg with glucose 18 mmol/kg i.p., versus glucose control; n = 6
# Method: as §1, with “bw). […] Blood glucose was measured immediately using a hand‐held Ascencia Contour blood glucose meter (Bayer Healthcare, Newbury, Berkshire, UK). For plasma insulin, blood was collected in chilled fluoride/heparin‐coated microcentrifuge tubes (Sarstedt, Numbrecht, Germany) and centrifuged using a Beckman microcentrifuge (Beckman Instruments, Galway, Ireland) for 10 min at 12,000 rpm. Plasma was separated and stored at −20°C, until determination of plasma insulin by radioimmunoassay.[23]” for “bw).”
smiles,measurement,setting,value
"CC[C@H](C)[C@H](NC(=O)[C@H](Cc1ccc(O)cc1)NC(=O)[C@H](CCCNC(=N)N)NC(=O)[C@H](CCCNC(=N)N)NC(=O)[C@H](CC(C)C)NC(=O)[C@H](CC(=O)O)NC(=O)[C@H](C)NC(=O)[C@H](C)NC(=O)[C@H](Cc1ccc(O)cc1)NC(=O)[C@H](CCC(N)=O)NC(=O)[C@H](C)NC(=O)[C@H](CCSC)NC(=O)[C@H](CCC(N)=O)NC(=O)[C@H](CCC(=O)O)NC(=O)[C@@H]1CCCN1C(=O)[C@@H](NC(=O)[C@H](C)NC(=O)[C@H](CC(N)=O)NC(=O)[C@H](CC(=O)O)NC(=O)CNC(=O)[C@@H]1CCCN1C(=O)[C@H](Cc1ccc(O)cc1)NC(=O)[C@@H](NC(=O)[C@@H]1CCCN1C(=O)[C@H](CCC(=O)O)NC(=O)[C@H](CC(C)C)NC(=O)[C@@H]1CCCN1C(=O)[C@H](C)N)C(C)C)[C@@H](C)O)C(=O)N[C@@H](CC(N)=O)C(=O)N[C@@H](CCSC)C(=O)N[C@@H](CC(C)C)C(=O)N[C@H](C(=O)N[C@@H](CCCNC(=N)N)C(=O)N1CCC[C@H]1C(=O)N[C@@H](CCCNC(=N)N)C(=O)N[C@@H](Cc1ccc(O)cc1)C(N)=O)[C@@H](C)O [PP, Pancreatic polypeptide]",cumulative food intake (appetite suppression),"C57BL/6 mice [1]; 25 nmol/kg i.p., overnight (16 h) fasted mice, up to 180 min, versus saline",particularly effective
same,food intake in combination with CCK‐8,"C57BL/6 mice [1]; PP peptide 25 nmol/kg with CCK‐8 25 nmol/kg i.p., fasted mice, compared with CCK‐8",significantly (p = <0.05 to 0.01) augment this effect from 90 min onwards
same,food intake in combination with exendin‐4,"C57BL/6 mice [1]; PP peptide 25 nmol/kg with exendin‐4 0.25 nmol/kg i.p., fasted mice",additive appetite suppressive actions
same,circulatory half‐life,[2],less than 7 min
same,dependence of beta‐cell proliferative benefit on NPY4R signaling,NPY4R,dependent on NPY4R signaling
same,glucose‐induced insulin secretion (plasma insulin),C57BL/6 mice [3],slightly decreasing (p = <0.05 to 0.01)
